In ChEMBL document CHEMBL1126962, “Antagonists of luteinising hormone-releasing hormone (LHRH). Progress towards non-peptide leads” (1993):

Tests used:
Type in all cases: functional
Rattus norvegicus [1] = test: Effective dose required to inhibit ovulation in normal cycling rats at a dose of 2 mg/kg
Rattus norvegicus [2] = species on record: Rattus norvegicus; test: Effective dose required to inhibit ovulation in normal cycling rats
Rattus norvegicus [3] = test: Effective dose required to inhibit ovulation in normal cycling rats at 1 mg/kg

| Compound | ED50 (Rattus norvegicus [2]) [ug rat-1] | further results |
| --- | --- | --- |
| CC(C)C[C@@H]1NC(=O)[C@@H](CCCN=C(N)N)NC(=O)[C@@H]2CCC(=O)NCCCC[C@H](NC1=O)C(=O)N1CCC[C@H]1C(=O)N[C@H](C)C(=O)N[C@H](Cc1ccc(Cl)cc1)C(=O)N[C@H](Cc1ccc(Cl)cc1)C(=O)N[C@H](Cc1c[nH]c3ccccc13)C(=O)N[C@@H](CO)C(=O)N2 | – | inhibition in vivo at 2 mg/kg (Rattus norvegicus [1]): 40% |
| CC(=O)N[C@H](Cc1ccc(Cl)cc1)C(=O)N[C@H](Cc1ccc(Cl)cc1)C(=O)N[C@H](Cc1c[nH]c2ccccc12)C(=O)N[C@@H](CO)C(=O)N[C@H]1CC(=O)NCCCC[C@@H](C(=O)N2CCC[C@H]2C(=O)N[C@H](C)C(N)=O)NC(=O)[C@H](CC(C)C)NC(=O)[C@@H](CCCN=C(N)N)NC1=O | 180 | – |
| CC(C)C[C@@H]1NC(=O)[C@@H](CCCN=C(N)N)NC(=O)[C@@H]2CCC(=O)NCCCC[C@H](NC1=O)C(=O)N1CCC[C@H]1C(=O)N(C)[C@H](C)C(=O)N[C@H](Cc1ccc(Cl)cc1)C(=O)N[C@H](Cc1ccc(Cl)cc1)C(=O)N[C@H](Cc1c[nH]c3ccccc13)C(=O)N[C@@H](CO)C(=O)N2 | – | ED50 (Rattus norvegicus [3]): 200 ug rat-1; inhibition in vivo at 1 mg/kg (Rattus norvegicus [3]): 50% |
| CC(=O)N[C@H](Cc1ccc(Cl)cc1)C(=O)N[C@H](Cc1ccc(Cl)cc1)C(=O)N[C@H](Cc1c[nH]c2ccccc12)C(=O)N[C@@H](CO)C(=O)N[C@H]1CC(=O)NCCC[C@@H](C(=O)N2CCC[C@H]2C(=O)N[C@H](C)C(N)=O)NC(=O)[C@H](CC(C)C)NC(=O)[C@@H](CCCN=C(N)N)NC1=O | 540 | – |
| CC(=O)N[C@H](Cc1ccc(Cl)cc1)C(=O)N[C@H](Cc1ccc(Cl)cc1)C(=O)N[C@H](Cc1c[nH]c2ccccc12)C(=O)N[C@@H](CO)C(=O)N[C@H]1CCC(=O)NCCCC[C@@H](C(=O)N2CCC[C@H]2C(=O)N[C@H](C)C(N)=O)NC(=O)[C@H](CC(C)C)NC(=O)[C@@H](CCCN=C(N)N)NC1=O | 90 | – |
